Earlier results in US10258598B2, “Compounds for use in the prevention or treatment of cancer” ([…], priority 2014, dated 2019).
Counter-ions that a name gives are not always drawn.

System: norepinephrine and dopamine stores in catecholaminergic neurons in the brain stem
Conditions: 1 mg/kg s.c.; cited from earlier work

In the case of `COc1cc2c(cc1OC)C1CC(=O)C(CC(C)C)CN1CC2` (stereo not shown) [Tetrabenazine, Tetrabenazine HCl], the “depletion of norepinephrine and dopamine from their stores” value is listed as “at least 90%”.
